Results as given in ChEMBL document CHEMBL6121052, “Design of ROS-Triggered Sesquiterpene Lactone SC Prodrugs as TrxR1 Covalent Inhibitors for the Treatment of Non-Small Cell Lung Cancer” (J Med Chem, 2025).
Calls of active or inactive are those of the source. The calls are words filed in the database; no cut-off is given here.

Experiments:
A549 [1] = test: Induction of apoptosis in human A549 cells assessed as viable cells at 2.5 uM measured after 48 hrs by Annexin V/FITC staining based flow cytometric analysis (reference value: 90.8 %); type: functional; settings: read-out: Activity
A549 [2] = test: Induction of apoptosis in human A549 cells assessed as necrotic cells at 2.5 uM measured after 48 hrs by Annexin V/FITC staining based flow cytometric analysis (reference value: 2.52 %); type: functional
NSCLC = test: Downregulation of TrxR1 expression in human NSCLC cells; type: functional, cell-based
NCI-H1299 [3] = test: Inhibition of colony formation in human NCI-H1299 cells assessed as reduction in colony number at 4 uM incubated for 14 days by crystal violet staining based analysis; type: functional, cell-based; settings: time 14.0 day
A549 [4] = test: Induction of apoptosis in human A549 cells assessed as increase in green fluorescence intensity upto 10 uM by AO/EB staining based fluorescence microscopic analysis; type: functional, cell-based
A549 [5] = test: Induction of apoptosis in human A549 cells assessed as early apoptotic cells at 5 uM measured after 48 hrs by Annexin V/FITC staining based flow cytometric analysis (reference value: 1.31 %); type: functional
A549 [6] = test: Induction of apoptosis in human A549 cells assessed as viable cells at 5 uM measured after 48 hrs by Annexin V/FITC staining based flow cytometric analysis (reference value: 90.8 %); type: functional; settings: read-out: Activity
[7] = Volume of distribution at steady state in male Sprague-Dawley rat at 10 mg/kg, iv measured upto 24 hrs by LC-MS/MS analysis; type: ADME, organism-based; settings: in vivo, read-out: Vdss
NCI-H1299 [8] = test: Induction of morphological changes in human NCI-H1299 cells assessed as decrease in cell density upto 10 uM by AO/EB staining based analysis; type: functional
NCI-H1299 [9] = test: Cytotoxicity against human NCI-H1299 cells assessed as cell viability incubated for 48 hrs by MTT assay; type: functional, cell-based; settings: NCI-H1299, 48 h
NCI-H1299 [10] = test: Antitumor activity against human NCI-H1299 cells xenografted in BALB/c mouse assessed as decrease in TrxR1 expression at 5 to 10 mg/kg, po administered every 2 days for 2 weeks by IHC analysis; type: functional, organism-based; settings: dose 5-10 mg/kg
A549 [11] = test: Induction of apoptosis in human A549 cells assessed as decrease in BCl-2 expression at upto 10 uM incubated for 24 hrs by Western blot analysis; type: functional, cell-based
NCI-H1299 [12] = test: Induction of apoptosis in human NCI-H1299 cells assessed as chromatin condensation upto 10 uM by Hoechst 33258 staining based fluorescence microscopic analysis; type: functional, cell-based
NCI-H1299 [13] = test: Induction of apoptosis in human NCI-H1299 cells assessed as viable cells at 10 uM measured after 48 hrs by Annexin V/FITC staining based flow cytometric analysis (reference value: 96.3%); type: functional; settings: read-out: Activity
[14] = Toxicity in BALB/c mouse assessed as heart damage at 5 to 10 mg/kg, po administered every 2 days for 2 weeks by H and E staining based analysis; type: organism-based; settings: in vivo, 336 h, dose 5-10 mg/kg
A549 [15] = test: Induction of morphological changes in human A549 cells assessed as decrease in cell density upto 10 uM by AO/EB staining based analysis; type: functional
A549 [16] = test: Induction of apoptosis in human A549 cells assessed as late apoptotic cells at 2.5 uM measured after 48 hrs by Annexin V/FITC staining based flow cytometric analysis (reference value: 5.37%); type: functional
[17] = Toxicity in BALB/c mouse assessed as liver damage at 5 to 10 mg/kg, po administered every 2 days for 2 weeks by H and E staining based analysis; type: organism-based; settings: in vivo, 336 h, dose 5-10 mg/kg
NCI-H1299 [18] = test: Induction of ferroptosis in human NCI-H1299 cells assessed as cell death by MTT assay; type: functional, cell-based
NCI-H1299 [19] = test: Induction of apoptosis in human NCI-H1299 cells assessed as early apoptotic cells at 10 uM measured after 48 hrs by Annexin V/FITC staining based flow cytometric analysis (reference value: 1.14 %); type: functional
[20] = Cmax in male Sprague-Dawley rat at 10 mg/kg, iv measured upto 24 hrs by LC-MS/MS analysis; type: ADME, organism-based; settings: in vivo
[21] = Toxicity in BALB/c mouse assessed as body weight loss at 5 to 10 mg/kg, po administered every 2 days for 2 weeks; type: organism-based; settings: in vivo, 336 h, dose 5-10 mg/kg
NCI-H1299 [22] = test: Induction of intracellular ROS generation in human NCI-H1299 cells upto 10 uM by DCFH-DA probe based fluorescence assay; type: functional, cell-based
[23] = Toxicity in BALB/c mouse assessed as spleen damage at 5 to 10 mg/kg, po administered every 2 days for 2 weeks by H and E staining based analysis; type: organism-based; settings: in vivo, 336 h, dose 5-10 mg/kg
NCI-H1299 [24] = test: Antitumor activity against human NCI-H1299 cells xenografted in BALB/c mouse assessed as reduction in tumor volume at 5 to 10 mg/kg, po administered every 2 days for 2 weeks; type: functional, organism-based; settings: dose 5-10 mg/kg
A549 [25] = test: Induction of intracellular ROS generation in human A549 cells upto 10 uM by DCFH-DA probe based fluorescence assay; type: functional, cell-based
A549 [26] = test: Induction of ferroptosis in human A549 cells assessed as increase in intracellular LPO accumulation at 5 uM incubated for 24 hrs by flow cytometry analysis; type: functional, cell-based
NCI-H1299 [27] = test: Induction of apoptosis in human NCI-H1299 cells assessed as increase in green fluorescence intensity upto 10 uM by AO/EB staining based fluorescence microscopic analysis; type: functional, cell-based
NCI-H1299 [28] = test: Induction of apoptosis in human NCI-H1299 cells assessed as early apoptotic cells at 2.5 uM measured after 48 hrs by Annexin V/FITC staining based flow cytometric analysis (reference value: 1.14 %); type: functional
A549 [29] = test: Cytotoxicity against human A549 cells assessed as cell viability incubated for 48 hrs by MTT assay; type: functional, cell-based; settings: A549, 48 h
NCI-H1299 [30] = test: Induction of apoptosis in human NCI-H1299 cells assessed as increase in Bax expression at upto 10 uM incubated for 24 hrs by Western blot analysis; type: functional, cell-based
NCI-H1299 [31] = test: Induction of apoptosis in human NCI-H1299 cells assessed as necrotic cells at 10 uM measured after 48 hrs by Annexin V/FITC staining based flow cytometric analysis (reference value: 0.62%); type: functional
[32] = Toxicity in BALB/c mouse assessed as kidney damage at 5 to 10 mg/kg, po administered every 2 days for 2 weeks by H and E staining based analysis; type: organism-based; settings: in vivo, 336 h, dose 5-10 mg/kg
[33] = AUC (0 to t) in male Sprague-Dawley rat at 10 mg/kg, iv measured upto 24 hrs by LC-MS/MS analysis; type: ADME, organism-based; settings: in vivo
NCI-H1299 [34] = test: Induction of apoptosis in human NCI-H1299 cells assessed as early apoptotic cells at 5 uM measured after 48 hrs by Annexin V/FITC staining based flow cytometric analysis (reference value: 1.14 %); type: functional
A549 [35] = test: Induction of ferroptosis in human A549 cells assessed as effect on SLC7A11 protein expression at 10 uM incubated for 24 hrs by Western blotting analysis; type: functional, cell-based
NCI-H1299 [36] = test: Antitumor activity against human NCI-H1299 cells xenografted in BALB/c mouse assessed as decrease in Ki-67 expression at 5 to 10 mg/kg, po administered every 2 days for 2 weeks by IHC analysis; type: functional, organism-based; settings: dose 5-10 mg/kg
[37] = AUC (0 to infinity) in male Sprague-Dawley rat at 10 mg/kg, iv measured upto 24 hrs by LC-MS/MS analysis; type: ADME, organism-based; settings: in vivo

Vd [7]: 57.6 L/kg | Cmax [20]: 2310 ng/mL | AUC(0-t) at 24 h [33]: 997 ng·h/mL | AUC(0-inf) [37]: 1080 ng·h/mL
Structure (SMILES): CCCNC(=O)O[C@@H]1/C=C(\C)C[C@H]2C=C(C[C@@H]3OC(=O)[C@H](CSC(=S)N(C)C)[C@H]31)C(=O)O2
viability at 2.5 µM (A549 [1]): 87.7% | Activity (A549 [2]): 4.09% | Activity (NSCLC): Active | inhibition (NCI-H1299 [3]): Active | Activity (A549 [4]): Active | Activity (A549 [5]): 2.47% | viability at 5 µM (A549 [6]): 77.8% | Activity (NCI-H1299 [8]): Active | IC50 (NCI-H1299 [9]): 4.68 µM | Activity (NCI-H1299 [10]): Active | Activity (A549 [11]): Active | Activity (NCI-H1299 [12]): Active | viability at 10 µM (NCI-H1299 [13]): 68.6% | Activity [14]: Non-toxic | Activity (A549 [15]): Active | Activity (A549 [16]): 6.69% | Activity [17]: Non-toxic | Activity (NCI-H1299 [18]): Active | Activity (NCI-H1299 [19]): 8.46% | Activity [21]: Non-toxic | Activity (NCI-H1299 [22]): Active | Activity [23]: Non-toxic | Activity (NCI-H1299 [24]): Active | Activity (A549 [25]): Active | Activity (A549 [26]): Active | Activity (NCI-H1299 [27]): Active | Activity (NCI-H1299 [28]): 1.67% | IC50 (A549 [29]): 1.74 µM | Activity (NCI-H1299 [30]): Active | Activity (NCI-H1299 [31]): 1.01% | Activity [32]: Non-toxic | Activity (NCI-H1299 [34]): 10.2% | Activity (A549 [35]): Active | Activity (NCI-H1299 [36]): Active
